The results in this text go back to US9850203B2, “Autotaxin inhibitor compounds” (PharmAkea, Inc., priority 2013, dated 2017).

This test has as its target human autotaxin (ATX) (Homo sapiens (Human), UniProt Q13822). The test can be described thus: Human Autotaxin Assay. The format is biochemical. The conditions noted are these: concentrated conditioned media from Hep3B cells; LPC substrate, choline release. The essentials: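 Autotaxin source: Hep3B conditioned medium concentrated 20-fold, preincubated with compound 15 min at 37° C in lyso-PLD buffer (100 mM Tris pH 9, 500 mM NaCl, 5 mM MgCl2, 5 mM CaCl2, 0.05% Triton X-100, ±0.2% fatty-acid-free HSA). 100 uM LPC (14:0) then added, 1.5-3 hours at 37° C; choline release measured.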

A word on the IC50: it is the concentration needed to halve the response being measured. A higher IC50 goes with weaker potency in that assay. `Cc1c(Sc2cccc(C(=O)O)c2F)c2ccc(Cl)c(F)c2n1CC(=O)N1CCC(C)(O)C1` (centres unmarked) [Compound 2-61, 3-((6-Chloro-7-fluoro-1-(2-(3-hydroxy-3-methylpyrrolidin-1-yl)-2-oxoethyl)-2-methyl-1H-indol-3-yl)thio)-2-fluorobenzoic acid] returned an IC50 of at most 0.5 µM. `Cc1c(Sc2cccc(C(=O)O)c2F)c2ccc(Cl)c(F)c2n1CC(=O)N1CC(O)(C2CC2)C1` [Compound 2-63, 3-((6-Chloro-1-(2-(3-cyclopropyl-3-hydroxyazetidin-1-yl)-2-oxoethyl)-7-fluoro-2-methyl-1H-indol-3-yl)thio)-2-fluorobenzoic acid] showed an IC50 of at most 0.5 µM. The same measure for `Cc1c(Sc2cccc(C(=O)O)c2F)c2ccc(Cl)c(F)c2n1CC(=O)N1CC[C@@H](CO)C1` [Compound 2-64, (R)-3-((6-Chloro-7-fluoro-1-(2-(3-(hydroxymethyl)pyrrolidin-1-yl)-2-oxoethyl)-2-methyl-1H-indol-3-yl)thio)-2-fluorobenzoic acid]: at most 0.5 µM. The value for `Cc1c(Sc2cccc(C(=O)O)c2F)c2ccc(Cl)c(F)c2n1CC(=O)N1C[C@H](O)[C@@H](N2CCOCC2)C1` [Compound 2-65, 3-((6-Chloro-7-fluoro-1-(2-((3S,4S)-3-hydroxy-4-morpholinopyrrolidin-1-yl)-2-oxoethyl)-2-methyl-1H-indol-3-yl)thio)-2-fluorobenzoic acid] was at most 0.5 µM. In the case of `Cc1c(Sc2cccc(C(=O)O)c2F)c2ccc(Cl)c(F)c2n1CC(=O)N1C[C@@H](O)[C@H](F)C1` [Compound 2-66, 3-((6-Chloro-7-fluoro-1-(2-((3R,4R)-3-fluoro-4-hydroxypyrrolidin-1-yl)-2-oxoethyl)-2-methyl-1H-indol-3-yl)thio)-2-fluorobenzoic acid], the IC50 is at most 0.5 µM. The same measure for `Cc1c(Sc2cccc(C(=O)O)c2F)c2ccc(Cl)c(F)c2n1CC(=O)N1CC(C#N)C1` [Compound 2-67, 3-((6-Chloro-1-(2-(3-cyanoazetidin-1-yl)-2-oxoethyl)-7-fluoro-2-methyl-1H-indol-3-yl)thio)-2-fluorobenzoic acid]: at most 0.5 µM; for `Cc1c(Sc2cccc(C(=O)O)c2F)c2ccc(Cl)c(F)c2n1CC(=O)N1CCC(O)(c2ccccc2)C1` (centres unmarked) [Compound 2-68, 3-((6-Chloro-7-fluoro-1-(2-(3-hydroxy-3-phenylpyrrolidin-1-yl)-2-oxoethyl)-2-methyl-1H-indol-3-yl)thio)-2-fluorobenzoic acid]: at most 0.5 µM; for `Cc1c(Sc2cccc(C(=O)O)c2F)c2ccc(Cl)c(F)c2n1CC(=O)N1C[C@H](O)[C@@H](N(C)C)C1` [Compound 2-69, 3-((6-Chloro-1-(2-((3S,4S)-3-(dimethylamino)-4-hydroxypyrrolidin-1-yl)-2-oxoethyl)-7-fluoro-2-methyl-1H-indol-3-yl)thio)-2-fluorobenzoic acid]: at most 0.5 µM.

With `Cc1c(Sc2cccc(C(=O)O)c2F)c2ccc(Cl)c(F)c2n1CC(=O)N1C[C@H](O)[C@@H](N2CCN(C)CC2)C1` [Compound 2-70, 3-((6-Chloro-7-fluoro-1-(2-((3S,4S)-3-hydroxy-4-(4-methylpiperazin-1-yl)pyrrolidin-1-yl)-2-oxoethyl)-2-methyl-1H-indol-3-yl)thio)-2-fluorobenzoic acid], the IC50 was at most 0.5 µM.

Regarding `Cc1c(Sc2cccc(C(=O)O)c2F)c2ccc(Cl)c(F)c2n1CC(=O)N1CC(CN(C)C)C1` [Compound 2-71, 3-((6-Chloro-1-(2-(3-((dimethylamino)methyl)azetidin-1-yl)-2-oxoethyl)-7-fluoro-2-methyl-1H-indol-3-yl)thio)-2-fluorobenzoic acid], the IC50 was at most 0.5 µM.

`Cc1c(Sc2cccc(C(=O)O)c2F)c2ccc(Cl)c(F)c2n1CC(=O)N1CCC2(C1)OCCO2` [Compound 2-72, 3-((6-Chloro-7-fluoro-2-methyl-1-(2-oxo-2-(1,4-dioxa-7-azaspiro[4.4]nonan-7-yl)ethyl)-1H-indol-3-yl)thio)-2-fluorobenzoic acid] displayed an IC50 of at most 0.5 µM.
